# Key:
# [1] = Stability to light and air at ambient temperature; assay type: physicochemical
# [2] = air; cited from earlier work
SMILES,Stability [1],Stability at room temperature [2]
"CCCCCc1cc2c(c(OS(=O)(=O)CCC)c1)[C@@H]1C=C(C)CC[C@H]1C(C)(C)O2 [Example 3, Δ9-THC n-propyl sulfonate]",Stable to light and air at ambient temperature,
"CCCCCc1cc(O)c2c(c1)OC(C)(C)[C@@H]1CCC(C)=C[C@@H]21 [Δ9-THC, Δ9-tetrahydrocannabinol]",,relatively unstable
"CCCCCc1cc2c(c(OS(=O)(=O)c3cccs3)c1)[C@@H]1C=C(C)CC[C@H]1C(C)(C)O2 [Example 2, Δ9-THC 2-thiophene sulfonate]",Stable to light and air at ambient temperature,
"CCCCCc1cc2c(c(OS(=O)(=O)C[C@]34CCC(CC3=O)C4(C)C)c1)[C@@H]1C=C(C)CC[C@H]1C(C)(C)O2 [Example 1, Δ9-THC (1S)-(+)-Camphorsulfonate]",Stable to light and air at ambient temperature,
"CCCCCc1cc2c(c(OS(=O)(=O)CCCCl)c1)[C@@H]1C=C(C)CC[C@H]1C(C)(C)O2 [Example 4, Δ9-THC 3-chloropropyl sulfonate]",Stable to light and air at ambient temperature,
